Test system: LDL-R-LDL-C complexes
Assay: Automated FRET imaging of LDL-C-BODIPY/LDL-C-DiI internalized into MDCK cells (organization of LDL-R/LDL-C complexes)
Format: cell-based
Method: MDCK cells were bound with LDL-C-BODIPY and LDL-C-DiI for 2 h at 4° C. or incubated for various times (5-8 min and 20-30 min) at 37° C. in the presence or absence of BafilomycinA 1 (BafA1), a specific vacuolar-type ATPase inhibitor. Images were collected using a LSM Zeiss 510META confocal microscope with 63×1.4NA oil lens, 512×512 pixel resolution, no filter, 2× zoom. Then images were processed using an integrated and automated ImageJ plugin, which includes background removal, PFRET algorithm, ROI selection and E % analysis (48). […]
First, images were background-subtracted and processed by PFRET software, which removed donor and acceptor SBT pixel-by-pixel on the basis of matched fluorescence levels between the double-label specimen and single-label reference specimens, using seven images; two single-label donor reference images (donor excitation/donor channel and acceptor channel); two single-label acceptor reference images (donor and acceptor excitation, both in the acceptor channel); three double-label images (donor excitation/donor and acceptor channel, acceptor excitation/acceptor emission. Elangovan et al., 2003; Wallrabe et al., 2003a,b). […] The pixel-by-pixel correction used to generate the processed FRET (PFRET) image was actually based on the average value of narrow fluorescence rangers, for more efficient running of the correction algorithm (Elangovan et al., 2003). […]

## CO/C1=C\C(C)=C\[C@@H](C)[C@@H](O)[C@@H](C)C/C(C)=C/C=C/[C@H](OC)[C@@H]([C@@H](C)[C@@H](O)[C@H](C)[C@@]2(O)C[C@@H](O)[C@H](C)[C@@H](C(C)C)O2)OC1=O [BafA1, Bafilomycin A1]
30 min internalization at 37° C., 100 nM BafA1
  organization of LDL-R-LDL-C complexes (clustered vs. random): clustered organization
LDL-C internalized at 37° C. for 30 min in the presence of 100 nM BafA1
  dependency of E % on acceptor levels: clear independency from acceptor

Source: patent publication US8609329B2, “FRET-based assay for screening modulators of receptor cycling” (Albany Medical College, priority 2007, dated 2013)
